Common to all, as to experiment: NCI-60 cell line screen, 48 h
Assay [1] relates to COLO 205 colon.
In assay [2] the test system is HS 578T breast.
In assay [3] the test system is CCRF-CEM leukemia.
For assay [4], the system named is PC-3 prostate.
Assay [5] has as its system UACC-257 melanoma.
Assay [6] deals with ACHN renal.
Assay [7] deals with A549 NSCLC.
The subject of assay [8] is SF-295 CNS.
Assay [9] concerns NCI-H23 lung.
Assay [10] has as its system TK-10 renal.

Molecules are shown by their SMILES. “And” between values parts separate entries of the source, which are not always exact repeats. Equal entries are not always repeated.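 1) Cells in 96-well plates. 2) Compound, 48 h, 5 concentrations. 3) Linear interpolation between surrounding doses. 4) Unreached endpoint = highest concentration. The concentration for 50% growth inhibition is given as GI50. TGI: total growth inhibition.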 A value given as a limit tells only on which side of the number the result lay.

For `CC/C(=C(\c1ccc(O)cc1)c1ccc(OCCNC)cc1)c1ccccc1`, the GI50 in assay [1] was 1780 nM and 1800 nM; in assay [2], 356 nM and 1340 nM and 1780 nM; in assay [3], 2960 nM and 2560 nM and 2750 nM; in assay [4], 1840 nM and 1770 nM and 2250 nM; in assay [5], 1930 nM and 1640 nM and 1700 nM; in assay [6], 2110 nM and 1650 nM and 1940 nM. Also, the GI50 in assay [7] was 2330 nM and 1790 nM and 1740 nM; in [8] it was 1720 nM and 1840 nM and 1940 nM; in assay [9], 2130 nM and 1970 nM and 2100 nM; in assay [10] it was 2390 nM and 1880 nM and 2560 nM. For the same compound, the TGI in assay [1] is 3280 nM and 3310 nM and 3440 nM; in [2] it was 3420 nM and 3320 nM and 5180 nM; in assay [3], 11000 nM and 8600 nM and 7580 nM; in [4], 5920 nM and 4850 nM and 5530 nM; in [5], 3820 nM and 3350 nM and 3280 nM; in assay [6], 4850 nM and 3480 nM and 4100 nM. Further, the TGI was 5550 nM and 3490 nM and 3750 nM in [7]; 3480 nM and 3550 nM and 4090 nM in assay [8]; 4800 nM and 4290 nM and 4450 nM in assay [9]; 5500 nM and 3890 nM and 6260 nM in assay [10].
On to `COC(=O)c1c2c(c(C)[n+]([O-])c1C)C(=O)C(NCc1ccc(F)c(Cl)c1)=CC2=O`, for which the GI50 in assay [1] was 588 nM; in assay [2], 3220 nM; in assay [3] it was 3030 nM; in assay [4] it was 2270 nM; in [5] it was 1280 nM; in [6] it was 2100 nM. Further, the GI50 in assay [7] was 2230 nM; in assay [8], 1620 nM; in assay [9], 1740 nM; in assay [10] it was 3760 nM. The TGI in [1] came to 2290 nM; in assay [2], 21500 nM; in assay [3] it was 22800 nM; in assay [4], 12900 nM; in assay [5], 3100 nM; in assay [6] it was 7900 nM. Further, the TGI was 8150 nM in [7], 4260 nM in assay [8], 4770 nM in assay [9] and 16000 nM in [10].
For the compound `N#CC1=C(N)Oc2c(sc3c(F)cccc23)C1c1ccc([N+](=O)[O-])cc1` (stereo not given), the GI50 is 279 nM in assay [1]; 194 nM in [2]; 179 nM in assay [3]; 241 nM in assay [4]; 863 nM in assay [5]; 407 nM in [6]. In addition, the GI50 in [7] is 214 nM; in assay [8] it was 184 nM; in [9], 284 nM; in assay [10], 609 nM. The TGI in [1] worked out at 1110 nM; in [2] it was 808 nM; in [3], 3230 nM; in assay [4] it was 1710 nM; in [5], 2900 nM; in assay [6], 2310 nM. The TGI in assay [7] came out at 2370 nM; in assay [8] it was 1110 nM; in assay [9], 1460 nM; in assay [10] it was 3120 nM.
Consider `O=C1C(Nc2ccccn2)=C(I)C(=O)c2ncccc21`, for which the GI50 was 1900 nM in assay [1]; 1200 nM in assay [2]; 552 nM in assay [3]; 1750 nM in assay [4]; 1590 nM in assay [5]; 403 nM in [6]. Besides, the GI50 in [7] is 1280 nM; in assay [8], 1190 nM; in assay [9] it was 584 nM; in assay [10] it was 1870 nM. Moreover, the TGI in assay [1] was 3680 nM; in assay [2] it was 4900 nM; in assay [3], 5190 nM; in assay [4], 5120 nM; in assay [5], 3490 nM; in [6] it was 4490 nM. Moreover, the TGI is 2880 nM in assay [7], 2560 nM in assay [8], 2610 nM in assay [9] and 3650 nM in assay [10].
For `Cc1oc2c(c1C(=O)c1ccccc1)C(=O)c1ccccc1C2=O`, the TGI was 36500 nM in assay [1]; greater than 100000 nM in assay [2]; 5760 nM in [3]; 21700 nM in assay [4]; 10500 nM in assay [5]; 15300 nM in assay [6]. Further, the TGI in assay [7] was found to be 40200 nM; in [8] it was 22100 nM; in assay [9], 8360 nM; in assay [10], 33200 nM.
For `O=[N+]([O-])c1ccc2nc(N/N=C/c3ccc(O)cc3)sc2c1`, the GI50 in [1] was 12400 nM; in assay [2], 3700 nM; in assay [3] it was 3280 nM; in assay [4], 4510 nM; in assay [5], 9090 nM; in assay [6], 4630 nM. The GI50 in [7] was 3520 nM; in assay [8], 5610 nM; in assay [9], 5220 nM; in assay [10], 3970 nM. The TGI in assay [1] was 32100 nM; in assay [2] it was 38300 nM; in assay [3], greater than 100000 nM; in assay [4], 34200 nM; in [5], 45000 nM; in assay [6] it was greater than 100000 nM. Also, the TGI in assay [7] was 29400 nM; in [8], greater than 100000 nM; in [9], greater than 100000 nM; in assay [10] it was 29800 nM.
For `C/C=C(/C)C(=O)OC1C=C(CO)C(=O)C(OC(=O)/C(C)=C\C)C1C(C)C` (stereo not given), the GI50 in assay [1] is 823 nM; in assay [2], 2350 nM; in assay [3], 321 nM; in [4] it was 599 nM; in [5], 1280 nM; in [6], 541 nM. The GI50 in assay [7] was 1450 nM; in assay [8] it was 1820 nM; in assay [9], 1500 nM; in [10], 1380 nM. Besides, the TGI in assay [1] came out at 2750 nM; in assay [2] it was 6290 nM; in [3], 4190 nM; in assay [4], 1800 nM; in assay [5] it was 2650 nM; in [6] it was 1690 nM. The TGI turned out to be 2940 nM in [7], 3350 nM in assay [8], 3230 nM in assay [9] and 2790 nM in [10].

Source of the values: PubChem BioAssay (NCI).
